Data from ChEMBL document CHEMBL3351745, “Synthesis and in vitro evaluation of radioiodinated indolequinones targeting NAD(P)H: quinone oxidoreductase 1 for internal radiation therapy” (Bioorg Med Chem, 2014).

What was measured:
HT-29 [1] = assay: Drug level in human HT-29 cells treated with 18.5 kBq [125I]-3-([4-Iodophenoxy]methyl)-5-methoxy-1,2-dimethyl-1Hindole-4,7-dione after 60 mins by reversed phase TLC analysis; type: ADME, cell-based; conditions: ht-29, 1 h
HT-29 [2] = assay: Drug level in human HT-29 cells treated with 18.5 kBq [125I]-3-([3-Iodophenoxy]methyl)-5-methoxy-1,2-dimethyl-1Hindole-4,7-dione after 60 mins by reversed phase TLC analysis; type: ADME, cell-based; conditions: ht-29, 1 h
HT-29 [3] = assay: Drug metabolism in human HT-29 cells assessed as m-[125I]-iodophenol formation at 18.5 kBq after 60 mins by reversed phase TLC analysis; type: ADME, cell-based; conditions: ht-29, 1 h
HT-29 [4] = assay: Cellular uptake in human HT-29 cells at 18.5 kBq after 2 hrs by gamma-counting analysis; type: ADME, cell-based; conditions: ht-29, 2 h
HT-29 [5] = assay: Drug metabolism in human HT-29 cells assessed as [125I]-I formation at 18.5 kBq after 60 mins by reversed phase TLC analysis; type: ADME, cell-based; conditions: ht-29, 1 h
[6] = Drug metabolism in human HT-29 cells assessed as compound remaining at 18.5 kBq after 60 mins by reversed phase TLC analysis; type: ADME, cell-based; conditions: read-out: Stability
HT-29 [7] = assay: Cellular uptake in human HT-29 cells at 18.5 kBq up to 5 mins by gamma-counting analysis; type: ADME, cell-based; conditions: ht-29, 5 min
[8] = Stability of the compound in cell culture media; type: physicochemical
[9] = Stability in mouse plasma assessed as compound remaining at 74 KBq after 24 hrs by reversed phase TLC analysis; type: ADME, cell-free; conditions: read-out: Stability
[10] = Stability of the compound in PBS assessed as compound remaining at 74 KBq at pH 7.4 after 24 hrs by reversed phase TLC analysis; type: physicochemical; conditions: read-out: Stability
HT-29 [11] = assay: Drug metabolism in human HT-29 cells assessed as p-[125I]-iodophenol formation at 18.5 kBq after 60 mins by reversed phase TLC analysis; type: ADME, cell-based; conditions: ht-29, 1 h
[12] = target: NAD(P)H dehydrogenase [quinone] 1 (printed NOQ-1) (Homo sapiens, UniProt P15559); assay: Activity of NOQ-1 expressed in human HT-29 cell lysate assessed as compound remaining at 185 KBq after 2 hrs by reversed phase TLC analysis; type: ADME, cell-free; conditions: read-out: Stability
HT-29 [13] = assay: Cellular uptake in human HT-29 cells at 18.5 kBq after 30 mins by gamma-counting analysis in presence of 3-([{4-Iodophenyl}thio]methyl)-5-methoxy-1,2-dimethyl-1H-indole-4,7-dione; type: ADME, cell-based; conditions: ht-29, 0.5 h
A549 [14] = assay: Cellular uptake in human A549 cells at 18.5 kBq after 30 mins by gamma-counting analysis in presence of 3-([{4-Iodophenyl}thio]methyl)-5-methoxy-1,2-dimethyl-1H-indole-4,7-dione; type: ADME, cell-based; conditions: a549, 0.5 h
[15] = Ratio of cellular uptake in human A549 cells to cellular uptake in human HT-29 cells; type: ADME, cell-based
[16] = Drug metabolism in human A549 cells assessed as compound remaining at 18.5 kBq after 60 mins by reversed phase TLC analysis; type: ADME, cell-based; conditions: read-out: Stability
A549 [17] = assay: Cellular uptake in human A549 cells at 18.5 kBq by gamma-counting analysis; type: ADME, cell-based
A549 [18] = assay: Drug level in human A549 cells treated with 18.5 kBq [125I]-3-([4-Iodophenoxy]methyl)-5-methoxy-1,2-dimethyl-1Hindole-4,7-dione after 60 mins by reversed phase TLC analysis; type: ADME, cell-based; conditions: a549, 1 h
[19] = target: NAD(P)H dehydrogenase [quinone] 1 (Homo sapiens, UniProt P15559); assay: Activity of NOQ-1 expressed in human HT-29 cell lysate assessed as p-[125I]-iodophenol formation at 185 KBq after 2 hrs by reversed phase TLC analysis; type: ADME, cell-free; conditions: ht-29, 2 h
A549 [20] = assay: Drug metabolism in human A549 cells assessed as p-[125I]-iodophenol formation at 18.5 kBq after 60 mins by reversed phase TLC analysis; type: ADME, cell-based; conditions: a549, 1 h
A549 [21] = assay: Drug metabolism in human A549 cells assessed as [125I]-I formation at 18.5 kBq after 60 mins by reversed phase TLC analysis; type: ADME, cell-based; conditions: a549, 1 h
A549 [22] = assay: Cellular uptake in human A549 cells at 18.5 kBq after 1 to 120 mins by gamma-counting analysis; type: ADME, cell-based

Chain of NAD(P)H dehydrogenase [quinone] 1 (printed NOQ-1) (P15559 whole entry): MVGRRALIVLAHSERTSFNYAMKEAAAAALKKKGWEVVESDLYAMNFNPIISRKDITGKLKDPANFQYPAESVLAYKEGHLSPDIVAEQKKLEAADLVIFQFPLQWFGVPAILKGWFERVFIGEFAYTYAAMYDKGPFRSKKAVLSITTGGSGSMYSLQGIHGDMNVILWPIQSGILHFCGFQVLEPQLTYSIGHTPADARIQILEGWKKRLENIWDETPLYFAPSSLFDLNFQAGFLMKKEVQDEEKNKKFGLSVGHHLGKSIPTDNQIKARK
Chain of NAD(P)H dehydrogenase [quinone] 1 (P15559 whole entry): as above

Oc1cccc([125I])c1
Drug uptake (HT-29 [1]): Active
Drug uptake (HT-29 [2]): Active

COC1=CC(=O)c2c(c(COc3cccc([125I])c3)c(C)n2C)C1=O
Drug metabolism (HT-29 [3]): metabolite_detected
Drug uptake (HT-29 [4]): Active
Drug metabolism (HT-29 [5]): metabolite_detected
remaining at 1 h, 18.5 kBq [6]: < 10%
Drug uptake (HT-29 [7]): Active
Stability [8]: Stable
remaining at 24 h, 74 KBq [9]: 80%
remaining at 24 h, 74 KBq [10]: > 90%
Drug metabolism (HT-29 [11]): metabolite_detected

COC1=CC(=O)c2c(c(CSc3ccc([125I])cc3)c(C)n2C)C1=O
remaining at 2 h, 185 KBq [12]: 92%
Drug uptake (HT-29 [13]): Not Active
Drug uptake (A549 [14]): Not Active
Drug uptake (HT-29 [4]): Active
Ratio [15]: 4
Stability [8]: Stable
remaining at 24 h, 74 KBq [9]: > 97%
remaining at 24 h, 74 KBq [10]: > 90%
remaining at 1 h, 18.5 kBq [16]: > 85%
Drug uptake (A549 [17]): Dose-dependent effect

Oc1ccc([125I])cc1
Drug uptake (A549 [18]): Active
Drug uptake (HT-29 [1]): Active
Drug uptake (HT-29 [2]): Active

COC1=CC(=O)c2c(c(COc3ccc([125I])cc3)c(C)n2C)C1=O
remaining at 2 h, 185 KBq [12]: < 25%
Drug metabolism (HT-29 [3]): metabolite_detected
Drug metabolism [19]: metabolite_detected
Drug uptake (HT-29 [4]): Active
Drug metabolism (HT-29 [5]): metabolite_detected
remaining at 1 h, 18.5 kBq [6]: < 10%
Drug metabolism (A549 [20]): metabolite_detected
Drug uptake (HT-29 [7]): Active
Stability [8]: Stable
remaining at 24 h, 74 KBq [9]: 80%
Drug metabolism (A549 [21]): metabolite_detected
remaining at 24 h, 74 KBq [10]: > 90%
Drug uptake (A549 [22]): Active
Drug metabolism (HT-29 [11]): metabolite_detected

[125IH]
Drug uptake (A549 [18]): Active
Drug uptake (HT-29 [1]): Active
Drug uptake (HT-29 [2]): Active
